Data on 28 compounds can be found in patent publication US9512107B2, “Therapeutically active compositions and their methods of use” (Agios Pharmaceuticals, Inc., priority 2012, dated 2016).

Experiment [1] concerns U87MG pLVX-IDH2 R140Q-neo cells. Nature of the experiment: U87MG pLVX-IDH2 R140Q-neo cell based assay, 2-HG in media by LC-MS at 48 hours. The note with it: for IC50: Homo sapiens, U-87 MG. The procedure: U87MG pLVX-IDH2 R140Q-neo cells are grown in T125 flasks in DMEM containing 10% FBS, 1× penicillin/streptomycin and 500 μg/mL G418. They are harvested by trypsin and seeded into 96 well white bottom plates at a density of 5000 cell/well in 100 μl/well in DMEM with 10% FBS. No cells are plated in columns 1 and 12. Cells are incubated overnight at 37° C. in 5% CO2. The next day compounds are made up at 2× concentration and 100 ul are added to each cell well. The final concentration of DMSO is 0.2% and the DMSO control wells are plated in row G. The plates are then placed in the incubator for 48 hours. At 48 hours, 100 ul of media is removed from each well and analyzed by LC-MS for 2-HG concentrations. The cell plate is placed back in the incubator for another 24 hours. At 72 hours post compound addition, 10 mL/plate of Promega Cell Titer Glo reagent is thawed and mixed. The cell plate is removed from the incubator and allowed to equilibrate to room temperature. Then 100 ul of reagent is added to each well of media. The cell plate is then placed on an orbital shaker for 10 minutes and then allowed to sit at room temperature for 20 minutes. The plate is then read for luminescence with an integration time of 500 ms to determine compound effects on growth inhibition.

The target of another experiment is T1, IDH2 R140Q (Homo sapiens, UniProt P48735, R140Q).
T1 sequence (P48735 40-452 R140Q): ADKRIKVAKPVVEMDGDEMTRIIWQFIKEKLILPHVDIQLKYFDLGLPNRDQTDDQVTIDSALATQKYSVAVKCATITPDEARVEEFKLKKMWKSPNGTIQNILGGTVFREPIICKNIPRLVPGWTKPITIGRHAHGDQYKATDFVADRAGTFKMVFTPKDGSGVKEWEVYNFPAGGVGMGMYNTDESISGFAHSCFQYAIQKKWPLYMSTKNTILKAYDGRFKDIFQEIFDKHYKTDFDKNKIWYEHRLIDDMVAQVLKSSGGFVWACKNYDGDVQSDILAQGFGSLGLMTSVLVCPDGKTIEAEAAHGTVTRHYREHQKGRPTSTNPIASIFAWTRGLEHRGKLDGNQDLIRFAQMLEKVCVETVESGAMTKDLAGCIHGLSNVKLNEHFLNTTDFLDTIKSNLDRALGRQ
Nature of the experiment: IDH2 R140Q enzymatic assay (cofactor depletion, similar format). The class given is biochemical. The note with it: for IC50: read-out: Enz R140Q. How it is done: [The source words this procedure for another variant and says it was used here with some conditions changed.] Compounds are assayed for IDH2 R172K inhibitory activity through a cofactor depletion assay. […] The reaction is terminated by the addition of a second enzyme, diaphorase, and a corresponding substrate, resazurin. Diaphorase reduces resazurin to the highly fluorescent resorufin with the concomitant oxidation of NADPH to NADP, both halting the IDH2 reaction by depleting the available cofactor pool and facilitating quantitation of the amount of cofactor remaining after a specific time period through quantitative production of an easily detected fluorophore.
The test compound is then incubated for one hour at room temperature with the enzyme; before starting the IDH2 reaction with the addition of 10 μl of substrate mix containing 50 μM NADPH and 6.3 mM α-KG in the buffer described above. After a further one hour of incubation at room temperature, the reaction is halted and the remaining NADPH measured through conversion of resazurin to resorufin by the addition of 25 μl Stop Mix (36 μg/ml diaphorase enzyme and 60 μM resazurin; in buffer).

As for `N#CC1(Nc2nc(Nc3ccncc3)nc(-c3ccccc3)n2)CCC1` [Compound 284, 1-(4-phenyl-6-(pyridin-4-ylamino)-1,3,5-triazin-2-ylamino)cyclobutanecarbonitrile], the IC50 (in experiment [1]; at IDH2 R140Q) was 100 to 1000 nM throughout.

On to `Cc1cc(Nc2nc(NC(C)C)nc(-c3ccccc3)n2)ccn1` [Compound 288, N^2-isopropyl-N^4-(2-methylpyridin-4-yl)-6-phenyl-1,3,5-triazine-2,4-diamine], for which the IC50 (in experiment [1]; on IDH2 R140Q) was below 100 nM each time.

As for `CC(C)Nc1nc(Nc2ccc(Cl)nc2)nc(-c2ccccc2)n1` [Compound 289, N^2-(6-chloropyridin-3-yl)-N^4-isopropyl-6-phenyl-1,3,5-triazine-2,4-diamine], the IC50 in experiment [1] was 100 to 1000 nM; on IDH2 R140Q, below 100 nM.

For the compound `CC(C)Nc1nc(Nc2ccccc2)nc(-c2cccc(N)n2)n1` [Compound 290, 6-(6-aminopyridin-2-yl)-N^2-isopropyl-N^4-phenyl-1,3,5-triazine-2,4-diamine], the results for the IC50 (in experiment [1]; on IDH2 R140Q) were below 100 nM and 100 to 1000 nM, respectively.

`CCC(CO)Nc1nc(Nc2ccncc2)nc(-c2ccccc2)n1` (centres unmarked) [Compound 291, 2-(4-phenyl-6-(pyridin-4-ylamino)-1,3,5-triazin-2-ylamino)butan-1-ol]: in experiment [1], the “Cell R140Q” value is on record as “No Fit”. The “Enz R140Q” value at IDH2 R140Q was “No Fit”.

On to `CC(C)Nc1nc(Nc2ccncc2F)nc(-c2ccccc2)n1` [Compound 292, N^2-(3-fluoropyridin-4-yl)-N^4-isopropyl-6-phenyl-1,3,5-triazine-2,4-diamine], for which the “Cell R140Q” value in experiment [1] is given as “No Fit”. The “Enz R140Q” value at IDH2 R140Q is “No Fit”.

With `CC(C)Nc1nc(Nc2ccnc(N(C)C)c2)nc(-c2ccccc2)n1` [Compound 293, N^2-(2-(dimethylamino)pyridin-4-yl)-N^4-isopropyl-6-phenyl-1,3,5-triazine-2,4-diamine], the IC50 (in experiment [1]; at IDH2 R140Q) was below 100 nM in each case.

In the case of `OCCNc1nc(Nc2ccncc2)nc(-c2ccccc2)n1` [Compound 294, 2-(4-phenyl-6-(pyridin-4-ylamino)-1,3,5-triazin-2-ylamino)ethanol], the “Cell R140Q” value in experiment [1] is “No Fit”. In addition, at IDH2 R140Q, the “Enz R140Q” value is “No Fit”.

For `c1ccc(-c2nc(Nc3ccncc3)nc(N[C@@H]3C[C@@H]4CC[C@H]3C4)n2)cc1` [Compound 295, N^2-((1S,2R,4R)-bicyclo[2.2.1]heptan-2-yl)-6-phenyl-N^4-(pyridin-4-yl)-1,3,5-triazine-2,4-diamine], the IC50 (in experiment [1]; on IDH2 R140Q) was below 100 nM throughout.

Consider `c1ccc(Nc2nc(N[C@@H]3C[C@@H]4CC[C@H]3C4)nc(-c3ccccc3)n2)cc1` [Compound 296, N^2-((1S,2R,4R)-bicyclo[2.2.1]heptan-2-yl)-N^4,6-diphenyl-1,3,5-triazine-2,4-diamine], for which the IC50 in experiment [1] was below 100 nM; at IDH2 R140Q, 100 to 1000 nM.

Consider `c1ccc(-c2nc(Nc3ccncc3)nc(NC3C4COCC43)n2)cc1` (centres unmarked) [Compound 297, N^2-(3-oxabicyclo[3.1.0]hexan-6-yl)-6-phenyl-N^4-(pyridin-4-yl)-1,3,5-triazine-2,4-diamine], for which the IC50 (in experiment [1]; on IDH2 R140Q) was below 100 nM each time.

Take `CC(C)Nc1nc(Nc2ccnc(N3CCOCC3)c2)nc(-c2ccccc2)n1` [Compound 298, N^2-isopropyl-N^4-(2-morpholinopyridin-4-yl)-6-phenyl-1,3,5-triazine-2,4-diamine]: the IC50 (in experiment [1]; at IDH2 R140Q) was below 100 nM throughout.

Turning to `CC(C)Nc1nc(Nc2ccnc(N3CCC3)c2)nc(-c2ccccc2)n1` [Compound 299, N^2-(2-(azetidin-1-yl)pyridin-4-yl)-N^4-isopropyl-6-phenyl-1,3,5-triazine-2,4-diamine], the IC50 is 100 to 1000 nM in experiment [1] and below 100 nM on IDH2 R140Q.

Consider `c1ccc(-c2nc(NCC3COC3)nc(Nc3ccncc3)n2)cc1` [Compound 300, N^2-(oxetan-3-ylmethyl)-6-phenyl-N^4-(pyridin-4-yl)-1,3,5-triazine-2,4-diamine], for which the IC50 (in experiment [1]; at IDH2 R140Q) was 100 to 1000 nM each time.

With `CC(C)Nc1cc(Nc2nc(NC(C)C)nc(-c3ccccc3)n2)ccn1` [Compound 301, N^2-isopropyl-N^4-(2-(isopropylamino)pyridin-4-yl)-6-phenyl-1,3,5-triazine-2,4-diamine], the IC50 in experiment [1] was below 100 nM; at IDH2 R140Q, 100 to 1000 nM.

`CNc1cc(Nc2nc(NC(C)C)nc(-c3ccccc3)n2)ccn1` [Compound 302, N^2-isopropyl-N^4-(2-(methylamino)pyridin-4-yl)-6-phenyl-1,3,5-triazine-2,4-diamine]: the IC50 in experiment [1] is 100 to 1000 nM; at IDH2 R140Q, below 100 nM.

`CNc1ccc(Nc2nc(NC(C)C)nc(-c3ccccc3)n2)cn1` [Compound 303, N^2-isopropyl-N^4-(6-(methylamino)pyridin-3-yl)-6-phenyl-1,3,5-triazine-2,4-diamine]: in experiment [1], the “Cell R140Q” value is “No Fit”. The IC50 at IDH2 R140Q is 1000 to 10000 nM.

Consider `OC1CCCC(Nc2nc(Nc3ccncc3)nc(-c3ccccc3)n2)C1` (centres unmarked) [Compound 304, 3-(4-phenyl-6-(pyridin-4-ylamino)-1,3,5-triazin-2-ylamino)cyclohexanol], for which the “Cell R140Q” value in experiment [1] is “No Fit”. The IC50 at IDH2 R140Q fell in the range of 1000 to 10000 nM.

Take `COC1CC(Nc2nc(Nc3ccncc3)nc(-c3ccccc3)n2)C1` (centres unmarked) [Compound 305, N^2-(3-methoxycyclobutyl)-6-phenyl-N^4-(pyridin-4-yl)-1,3,5-triazine-2,4-diamine]: the “Cell R140Q” value in experiment [1] is “No Fit”. Further, the IC50 at IDH2 R140Q was above 10000 nM.

In the case of `CS(=O)(=O)c1cccc(Nc2nc(NC3CCOCC3)nc(-c3ccccc3)n2)c1` [Compound 306], the IC50 in experiment [1] was below 100 nM; on IDH2 R140Q, 100 to 1000 nM.

Take `CC(C)Nc1nc(Nc2cnn(C)c2)nc(-c2ccccc2)n1` [Compound 308, N^2-isopropyl-N^4-(1-methyl-1H-pyrazol-4-yl)-6-phenyl-1,3,5-triazine-2,4-diamine]: the IC50 was 100 to 1000 nM in experiment [1] and below 100 nM at IDH2 R140Q.

`CC(C)Nc1nc(Nc2cnoc2)nc(-c2ccccc2)n1` [Compound 309, N^2-isopropyl-N^4-(isoxazol-4-yl)-6-phenyl-1,3,5-triazine-2,4-diamine]: the IC50 (in experiment [1]; at IDH2 R140Q) was below 100 nM in each case.

Regarding `Cc1cc(Nc2nc(NC(C)C)nc(-c3ccccc3)n2)cc(C)n1` [Compound 310, N^2-(2,6-dimethylpyridin-4-yl)-N^4-isopropyl-6-phenyl-1,3,5-triazine-2,4-diamine], the IC50 in experiment [1] was below 100 nM; on IDH2 R140Q, 100 to 1000 nM.

In the case of `CC(C)Nc1nc(Nc2ccc(OCC3CC3)nc2)nc(-c2ccccc2)n1` [Compound 311, N^2-(6-(cyclopropylmethoxy)pyridin-3-yl)-N^4-isopropyl-6-phenyl-1,3,5-triazine-2,4-diamine], the IC50 (in experiment [1]; on IDH2 R140Q) was 100 to 1000 nM each time.

As for `CC(C)Nc1nc(Nc2ccc(OC(C)C)nc2)nc(-c2ccccc2)n1` [Compound 312, N^2-(6-isopropoxypyridin-3-yl)-N^4-isopropyl-6-phenyl-1,3,5-triazine-2,4-diamine], the IC50 in experiment [1] was 1000 to 10000 nM; at IDH2 R140Q, 100 to 1000 nM.

Regarding `CC(C)Nc1nc(Nc2cncs2)nc(-c2ccccc2)n1` [Compound 313, N^2-isopropyl-6-phenyl-N^4-(thiazol-5-yl)-1,3,5-triazine-2,4-diamine], the IC50 (in experiment [1]; on IDH2 R140Q) was below 100 nM in each case.

For `CC(C)Nc1nc(Nc2ccncc2C(F)(F)F)nc(-c2ccccc2)n1` [Compound 314, N^2-isopropyl-6-phenyl-N^4-(3-(trifluoromethyl)pyridin-4-yl)-1,3,5-triazine-2,4-diamine], the “Cell R140Q” value in experiment [1] is recorded as “No Fit”. The IC50 on IDH2 R140Q was in the range of 1000 to 10000 nM.

As to `CC(C)Nc1nc(Nc2ccnc(C3CC3)c2)nc(-c2ccccc2)n1` [Compound 315, N^2-(2-cyclopropylpyridin-4-yl)-N^4-isopropyl-6-phenyl-1,3,5-triazine-2,4-diamine], the IC50 (in experiment [1]; on IDH2 R140Q) was below 100 nM each time.
